Assay results from the NIST ThermoML archive (doi:10.1016/j.fluid.2009.11.004).
± gives the expanded uncertainty stated by the source. One block for each molecule: values may come before it.

Columns and labels:
[1] = refractive index (Na D-line) (dimensionless); details: 298.15 K; 101.33 kPa; Liquid; Standard Abbe refractometry
[2] = Liquid, Ebulliometric method (Recirculating still)

Compound: Cc1ccccc1C [1,2-dimethylbenzene]
refractive index [1]: 1.5028 ± 0.0007

Compound: CCCCCC [hexane]
refractive index [1]: 1.3724 ± 0.0007

Compound: CC1CCCC1 [methylcyclopentane]
vapor or sublimation pressure ([2]; 300.4 K): 20.25 ± 0.4 kPa | vapor or sublimation pressure ([2]; 310.16 K): 30.18 ± 0.41 kPa | vapor or sublimation pressure ([2]; 317.69 K): 40.24 ± 0.45 kPa | vapor or sublimation pressure ([2]; 323.75 K): 50.16 ± 0.49 kPa | vapor or sublimation pressure ([2]; 328.97 K): 60.22 ± 0.53 kPa | vapor or sublimation pressure ([2]; 333.37 K): 69.94 ± 0.58 kPa | vapor or sublimation pressure ([2]; 337.5 K): 80.18 ± 0.62 kPa | vapor or sublimation pressure ([2]; 341.25 K): 90.53 ± 0.68 kPa | vapor or sublimation pressure ([2]; 345.1 K): 102.31 ± 0.7 kPa | refractive index [1]: 1.4067 ± 0.0007

More lines, now with the values ahead:

vapor or sublimation pressure ([2]; 290.34 K): 20.3 ± 0.4 kPa | vapor or sublimation pressure ([2]; 299.7 K): 30.13 ± 0.42 kPa | vapor or sublimation pressure ([2]; 307.12 K): 40.39 ± 0.46 kPa | vapor or sublimation pressure ([2]; 312.92 K): 50.23 ± 0.5 kPa | vapor or sublimation pressure ([2]; 317.93 K): 60.24 ± 0.54 kPa | vapor or sublimation pressure ([2]; 322.26 K): 70.13 ± 0.59 kPa | vapor or sublimation pressure ([2]; 326.15 K): 80.11 ± 0.64 kPa | vapor or sublimation pressure ([2]; 329.74 K): 90.32 ± 0.69 kPa | vapor or sublimation pressure ([2]; 333.37 K): 101.76 ± 0.72 kPa | refractive index [1]: 1.3685 ± 0.0007
Compound: CCCC(C)C [2-methylpentane]

refractive index [1]: 1.5172 ± 0.0007
Compound: Cc1ccsc1 [3-methylthiophene]

vapor or sublimation pressure ([2]; 325.39 K): 20.25 ± 0.39 kPa | vapor or sublimation pressure ([2]; 336.27 K): 30.47 ± 0.4 kPa | vapor or sublimation pressure ([2]; 344.1 K): 40.07 ± 0.43 kPa | vapor or sublimation pressure ([2]; 350.71 K): 49.96 ± 0.47 kPa | vapor or sublimation pressure ([2]; 356.44 K): 60.05 ± 0.51 kPa | vapor or sublimation pressure ([2]; 361.45 K): 70.17 ± 0.55 kPa | vapor or sublimation pressure ([2]; 365.75 K): 79.96 ± 0.59 kPa | vapor or sublimation pressure ([2]; 369.98 K): 90.64 ± 0.63 kPa | vapor or sublimation pressure ([2]; 373.9 K): 101.6 ± 0.65 kPa
Compound: CC1CCCCC1 [methylcyclohexane]
